Tests used:
recombinant EhipPBP1 [1] = molecular target: T1, recombinant EhipPBP1 (Eogystia hippophaecolus, UniProt A0A1B3P5J8); test: Fluorescence competitive binding assay with 1-NPN as probe; conditions: for inhibition: 1-NPN and EhipPBP1 both at 2 μM, read-out: Highest combined rate (%); for inhibition / IC50: pH 7.4; for IC50: concentration of competitor causing 50% reduction of 1-NPN fluorescence, 1-NPN and EhipPBP1 at 2 μM
Experimental: (§1) N-phenyl-1-naphthylamine (1-NPN) was selected for use as a selectively fluorescent probe to measure the affinity of ligand binding to recombinant EhipPBP1 ([Yin et al., 2012]; [Zhong et al., 2012]). Seven pheromone and analog compounds were a gift from Professor Zhang Jintong of Shanxi Agricultural University (Table 1) and were >97% pure. A fluorescence binding assay was performed on a multiscan Spectrum Molecular Device SpectraMax i3 (Thermo Scientific, Wilmington, DE, United States) with an excitation wavelength of 337 nm and recording of emission spectra between 380 and 520 nm. Parameter selection was such that the slit widths for both excitation and emission were 10 nm. Spectra were recorded using high-speed scanning. 2 μM solution of EhipPBP1 was prepared in 20 mM Tris-HCl buffer (pH 7.4), and the ligands were dissolved in chromatographically pure methanol as 1 mM stock solutions. The affinity of EhipPBP1 for the labeled probe was determined by adding aliquots of 1-NPN stock solution to give final concentrations of 2–20 μM. […] To determine dissociation constants, intensity values corresponding to maximum fluorescence emission were plotted against free ligand concentrations. Assuming that the protein was 100% active and that the stoichiometric ratio between protein and ligand was 1:1 at saturation, the bound ligand was determined from the fluorescence intensity values. EhipPBP1 binding with every component was replicated six times. The curves were then linearized using Scatchard plots to calculate K1-NPN values. Dissociation constants of the competitors (Ki) were calculated from the corresponding IC50 values by the following equation: Ki = [IC50]/(1 + [1–NPN]/K1-NPN), where [IC50] was the concentration of a competitor that caused a 50% reduction in the fluorescence intensity, [1–NPN] represented the free concentration of 1–NPN, and K1-NPN represented the dissociation constant of the complex of protein with 1–NPN ([Campanacci et al., 2001]).

recombinant EhipPBP1 [2] = molecular target: T1, recombinant EhipPBP1; test: Binding of the fluorescent probe 1-NPN to EhipPBP1 (Scatchard analysis); conditions: Scatchard method; 2 μM EhipPBP1, 1-NPN 2–20 μM, pH 7.4; read-out: dissociation constant (K1-NPN)
Experimental: as §1, with “EhipPBP1 binding with every component was replicated six times. The curves were then linearized using Scatchard plots to calculate K1-NPN values. Dissociation constants of the competitors (Ki) were calculated from the corresponding IC50 values by the following equation: Ki = [IC50]/(1 + [1–NPN]/K1-NPN), where [IC50] was the concentration of a competitor that caused a 50% reduction in the fluorescence intensity, [1–NPN] represented the free concentration of 1–NPN, and K1-NPN represented the dissociation constant of the complex of protein with 1–NPN ([Campanacci et al., 2001]).” left out

[3] = calculated from IC50 by Ki = [IC50]/(1 + [1-NPN]/K1-NPN), Table 1
[4] = calculated Kd values in competitive binding assays with 1-NPN

T1 sequence (A0A1B3P5J8 entry or part of it): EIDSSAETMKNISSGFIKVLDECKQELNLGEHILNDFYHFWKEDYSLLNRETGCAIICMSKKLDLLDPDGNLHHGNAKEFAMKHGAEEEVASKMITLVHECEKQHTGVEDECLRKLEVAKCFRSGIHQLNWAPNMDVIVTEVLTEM

inhibition (recombinant EhipPBP1 [1]; competitor 2–20 μM) [%]	Kd (recombinant EhipPBP1 [1]; [3]) [µM]	IC50 (recombinant EhipPBP1 [1]) [µM]	Kd (recombinant EhipPBP1 [1]; [4]) [µM]	binding to EhipPBP1 (result in words) (recombinant EhipPBP1 [1]; competitor 2–20 μM)	binding in the range of test concentrations (recombinant EhipPBP1 [1]; competitor 2–20 μM, Kd could not be calculated) [%]	SMILES	Kd (recombinant EhipPBP1 [2]) [µM]
62.3	3.15 ± 0.321	4				CCCCCCC=CCCCCCCO [Z7-14:OH]	
53.1	6.3 ± 0.521	8	6.3 ± 0.52			CCCC/C=C/CCCCCCCCOC(C)=O [E9-14:Ac]	
56.5	2.36 ± 0.201	3	2.36 ± 0.2			CCCCCCCCCCC=CCCO [Z3-14:OH]	
						c1ccc(Nc2cccc3ccccc23)cc1 [1-NPN, N-phenyl-1-naphthylamine]	3.7 ± 0.06
89.4	1.57 ± 0.21	2	1.58 ± 0.21			CCCCCCCCCC/C=C/CCOC(C)=O [E3-14:Ac, (E)-3-tetradecenyl acetate]	
				No binding was detected		CCCCCCCCCC/C=C\CCOC(C)=O [Z3-14:Ac]	
37.9					< 50	CCCCC=CCCCCCCCCOC(C)=O [Z9-14:Ac]	
86.4	1.18 ± 0.012	1.5	1.18 ± 0.01			CCCCCC/C=C\CCCCCCOC(C)=O [Z7-14:Ac, (Z)-7-tetradecenyl acetate]	
